Consider 1 compound from paper PMC10300829 (2023).

Experiment [1] deals with C9-24mer (DNA, G4) GGGGCCGGGGCCGGGGCCGGGGCC
Briefly: CD melting. The settings on record: K+ 5 mM; 30 mM Tris-HCl pH 7.4; 2 µM DNA, 8 µM compound (4 equivalents).

In experiment [2] the test system is C9-48mer (DNA, G4) GGGGCCGGGGCCGGGGCCGGGGCCGGGGCCGGGGCCGGGGCCGGGGCC
Nature of the experiment: CD melting at 265 nm. The settings on record: K+ 5 mM; 30 mM Tris-HCl pH 7.4; 1 µM DNA; Tm 90 °C at 1 equivalent, undetectable above 4 equivalents.

In experiment [3] the test system is Dup I + II (DNA, duplex) GGGCATAGTGCGTGGCGTTTAGC/GCTAAACGCCACGCACTATGCCC
Nature of the experiment: CD and native PAGE. The settings on record: K+ 5 mM; 30 mM Tris-HCl pH 7.4; co-annealed; PAGE with 8 µM Fangchinoline, 2 µM each strand.

Experiment [4] relates to C9-24mer G + C (C9-24mer with C9-24mer-C) (DNA, other) GGGGCCGGGGCCGGGGCCGGGGCC/GGCCCCGGCCCCGGCCCCGGCCCC
Briefly: CD and native PAGE. Particulars: K+ 5 mM; 30 mM Tris-HCl pH 7.4; co-annealed; PAGE with 8 µM Fangchinoline; parallel GQ induced.

Experiment [5] has as its system C9-48mer (DNA, G4) GGGGCCGGGGCCGGGGCCGGGGCCGGGGCCGGGGCCGGGGCCGGGGCC
Briefly: CD titration at 265 nm, Hill fit. Particulars: K+ 5 mM; 30 mM Tris-HCl pH 7.4; co-annealed; 1 µM DNA; per GQ unit; ligand induces parallel GQ; apparent.

Experiment [6] concerns C9-RNA (RNA, G4) GGGGCCGGGGCCGGGGCCGGGGCC
Briefly: CD melting. The settings on record: K+ 5 mM; 30 mM Tris-HCl pH 7.4; 5 µM RNA, 2 equivalents (10 µM); Tm 76 to 93 °C.

Experiment [7] has as its system FRET I + II (DNA, G4) GGGGCCGGGGCCGGGGCCGGGGCCAGAGGTAAAAGGATAATGGCCACGGTGCGGACGGC/GCCGTCCGCACCGTGGCCATTATCCTTTTACCTCT
Briefly: FRET (Cy3/Cy5) and CD. Particulars: K+ 100 mM; 30 mM Tris-HCl pH 7.4; 2 µM DNA, 8-24 µM compound; FRET efficiency falls to 0.46.

In experiment [8] the test system is C9-24mer (DNA, G4) GGGGCCGGGGCCGGGGCCGGGGCC
Nature of the experiment: CD titration at 265 nm, Hill fit. Particulars: K+ 5 mM; 30 mM Tris-HCl pH 7.4; co-annealed; 2 µM DNA; per GQ unit; ligand induces parallel GQ; apparent.

For the compound `COc1ccc2cc1Oc1ccc(cc1)C[C@H]1c3cc(c(OC)cc3CCN1C)Oc1c(O)c(OC)cc3c1[C@H](C2)N(C)CC3`, the ΔTm (in general, the shift of the melting midpoint relative to a reference) came out at 6 °C in experiment [1] and 17 °C in experiment [6]. The binding result in experiment [2] was “yes”; in experiment [3], “no”; in experiment [4], “yes”; in experiment [7], “yes”. The Kb entry in experiment [5] is reported as “(6.6 ± 0.2) × 10^5 M^-1”; in experiment [8], “(4.0 ± 0.3) × 10^5 M^-1”.
